Numbered stars: 1 amine (or outer) side, 2 acyl side, 3 side chain; on linkers, the order of the positions; unused ones are H or OH. Bridge positions count the residues as written; N and C are the ends. Square brackets hold non-standard residues; d marks the D form. Peptide text beside a SMILES is read from it. * marks the point of attachment. ξ: configuration not given here. Phe(4-COOH) = N[C@@H](Cc1ccc(C(=O)O)cc1)C(=O)O; Bip = N[C@@H](Cc1ccc(-c2ccccc2)cc1)C(=O)O; βAsp = O=C(O)[C@H](CC(=O)[*:2])N[*:1]; NH(CH2)12COOH = O=C(O)CCCCCCCCCCCCN*; PEG6 = NCCOCCOCCOCCOCCOCCOCCC(=O)O; hArg = N=C(N)NCCCC[C@H](N)C(=O)O; 4Pal = N[C@@H](Cc1ccncc1)C(=O)O; Cha = N[C@@H](CC1CCCCC1)C(=O)O; Ile(3ξ) = CCC(C)[C@H](N)C(=O)O; Thr(3ξ) = CC(O)[C@H](N)C(=O)O; 12Ado = NCCCCCCCCCCCC(=O)O; Carboxymethyl = O=C(O)C*; Orn = NCCC[C@H](N)C(=O)O; Aun = NCCCCCCCCCCC(=O)O; Dab = NCC[C@H](N)C(=O)O; AEEA = NCCOCCOCC(=O)O
The molecules below were run against T1, PD-1/PD-L1 interaction (PE-labeled human PD-L1-Ig binding to Jurkat cell line over-expressing human PD-1) (Homo sapiens, UniProt Q15116) (assay: Jurkat-PD-1 Cell Binding High-Content Screening Assay (CBA)). Details: Jurkat cell line over-expressing human PD-1; PE-labeled PD-L1-Ig 20 nM final; read-out: Jurkat hPD1-PDL1 IC50.
T1 construct: expressed in transfected cells; host or cells: Jurkat
T1 sequence (Q15116 25-288): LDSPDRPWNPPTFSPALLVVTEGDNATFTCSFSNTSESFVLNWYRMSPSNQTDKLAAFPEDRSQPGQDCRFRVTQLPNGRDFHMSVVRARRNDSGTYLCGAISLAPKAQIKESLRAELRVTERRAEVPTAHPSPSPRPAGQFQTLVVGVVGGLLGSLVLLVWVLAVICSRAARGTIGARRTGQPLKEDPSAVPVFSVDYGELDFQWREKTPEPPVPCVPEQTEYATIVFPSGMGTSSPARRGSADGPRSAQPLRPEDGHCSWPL
Assay type: cell-based
Procedure, shortened: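 Jurkat cells stably over-expressing human PD-1 were seeded in DMEM with 10% fetal calf serum and pre-incubated with compound for 2 h at 37° C. PE-labeled human PD-L1-Ig was then added at 20 nM final for 1 hour, after which cells were fixed with paraformaldehyde, Hoechst-stained and imaged by high-content microscopy.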

Structure (SMILES)	IC50 [µM]
CC(C)C[C@H]1NC(=O)[C@H](CCCN)NC(=O)[C@H](C(C)C)NC(=O)[C@H](Cc2ccc(-c3ccccc3)cc2)NC(=O)[C@H](C(C)C)NC(=O)[C@H](Cc2c[nH]c3ccccc23)NC(=O)[C@H](CC(=O)O)NC(=O)[C@H](Cc2ccc(OCC(=O)O)cc2)NC(=O)[C@H](CCCCNC(=N)N)NC(=O)CSC[C@@H](C(=O)NCC(=O)NCCOCCOCC(=O)N[C@@H](CCCN)C(=O)NCCCCCCCCCCCC(=O)O)NC(=O)[C@H](CO)NC(=O)[C@H](C(C)C)NC(=O)[C@H](CC2CCCCC2)NC(=O)[C@H](CCN)NC1=O [Compound 3036] ({CH2CO}-[hArg]Y(Carboxymethyl)DWV[Bip]V[Orn][dL][Dab][Cha]VSCG[AEEA][Orn][12Ado]-OH; thioether N-14)	0.0049
CC(C)C[C@H]1NC(=O)[C@H](CCCN)NC(=O)[C@H](C(C)C)NC(=O)[C@H](Cc2ccc(-c3ccccc3)cc2)NC(=O)[C@H](C(C)C)NC(=O)[C@H](Cc2c[nH]c3ccccc23)NC(=O)[C@H](CC(=O)O)NC(=O)[C@H](Cc2ccc(OCC(=O)O)cc2)NC(=O)[C@H](CCCCNC(=N)N)NC(=O)CSC[C@@H](C(=O)NCC(=O)NCCOCCOCC(=O)N[C@@H](CCCN)C(=O)NCCCCCCCCCCCCC(=O)O)NC(=O)[C@H](CO)NC(=O)[C@H](C(C)C)NC(=O)[C@H](CC2CCCCC2)NC(=O)[C@H](CCN)NC1=O [Compound 3037] ({CH2CO}-[hArg]Y(Carboxymethyl)DWV[Bip]V[Orn][dL][Dab][Cha]VSCG[AEEA][Orn]-{NH(CH2)12COOH}; thioether N-14)	0.0165
CC(C)C[C@H]1NC(=O)[C@H](CCCN)NC(=O)[C@H](C(C)C)NC(=O)[C@H](Cc2ccc(-c3ccccc3)cc2)NC(=O)[C@H](C(C)C)NC(=O)[C@H](Cc2c[nH]c3ccccc23)NC(=O)[C@H](CC(=O)O)NC(=O)[C@H](Cc2ccc(C(=O)O)cc2)NC(=O)[C@H](C(C)O)NC(=O)CSC[C@@H](C(=O)N[C@@H](CC(N)=O)C(=O)NCCOCCOCC(=O)N[C@@H](CCCN)C(=O)NCCCCCCCCCCCC(=O)O)NC(=O)[C@H](CO)NC(=O)[C@H](C(C)C)NC(=O)[C@H](CC2CCCCC2)NC(=O)[C@H](CCN)NC1=O (stereo partly drawn) [Compound 3038] ({CH2CO}-[Thr(3ξ)][Phe(4-COOH)]DWV[Bip]V[Orn][dL][Dab][Cha]VSCN[AEEA][Orn][12Ado]-OH; thioether N-14)	0.0113
CCC(C)[C@@H]1NC(=O)[C@H](Cc2ccc(-c3ccccc3)cc2)NC(=O)[C@H](C(C)C)NC(=O)[C@H](Cc2c[nH]c3ccccc23)NC(=O)[C@H](CC(=O)O)NC(=O)[C@H](Cc2ccc(C(=O)O)cc2)NC(=O)[C@H](Cc2ccncc2)NC(=O)CSC[C@@H](C(=O)N[C@@H](CC(N)=O)C(=O)NCCOCCOCC(=O)N[C@@H](CCCN)C(=O)NCCCCCCCCCCC(=O)O)NC(=O)[C@H](CO)NC(=O)[C@H](C(C)C)NC(=O)[C@H](CC2CCCCC2)NC(=O)[C@H](CCN)NC(=O)[C@@H](CC(C)C)NC(=O)[C@H](CCCN)NC1=O (stereo partly drawn) [Compound 3039] ({CH2CO}-[4Pal][Phe(4-COOH)]DWV[Bip][Ile(3ξ)][Orn][dL][Dab][Cha]VSCN[AEEA][Orn][Aun]-OH; thioether N-14)	0.0105
CCC(C)[C@@H]1NC(=O)[C@H](Cc2ccc(-c3ccccc3)cc2)NC(=O)[C@H](C(C)C)NC(=O)[C@H](Cc2c[nH]c3ccccc23)NC(=O)[C@H](CC(=O)O)NC(=O)[C@H](Cc2ccncc2)NC(=O)[C@H](C(C)O)NC(=O)CSC[C@@H](C(=O)N[C@@H](CC(N)=O)C(=O)NCCOCCOCC(=O)N[C@@H](CCCN)C(=O)NCCCCCCCCCCCCC(=O)O)NC(=O)[C@H](CO)NC(=O)[C@H](C(C)C)NC(=O)[C@H](CC2CCCCC2)NC(=O)[C@H](CCN)NC(=O)[C@@H](CC(C)C)NC(=O)[C@H](CCCN)NC1=O (stereo partly drawn) [Compound 3040] ({CH2CO}-[Thr(3ξ)][4Pal]DWV[Bip][Ile(3ξ)][Orn][dL][Dab][Cha]VSCN[AEEA][Orn]-{NH(CH2)12COOH}; thioether N-14)	0.015
CC(C)C[C@H]1NC(=O)[C@H](CCCN)NC(=O)[C@H](C(C)C)NC(=O)[C@H](Cc2ccc(-c3ccccc3)cc2)NC(=O)[C@H](C(C)C)NC(=O)[C@H](Cc2c[nH]c3ccccc23)NC(=O)[C@H](CC(=O)O)NC(=O)[C@H](Cc2ccc(OCC(=O)O)cc2)NC(=O)[C@H](C(C)O)NC(=O)CSC[C@@H](C(=O)NCCOCCOCC(=O)N[C@@H](CC(=O)NCCCCCCCCCCCC(=O)O)C(=O)O)NC(=O)[C@H](CO)NC(=O)[C@H](C(C)C)NC(=O)[C@H](CC2CCCCC2)NC(=O)[C@H](CCN)NC1=O (stereo partly drawn) [Compound 3041] ({CH2CO}-[Thr(3ξ)]Y(Carboxymethyl)DWV[Bip]V[Orn][dL][Dab][Cha]VSC[AEEA][βAsp][12Ado]-OH; thioether N-14)	0.0127
CC(C)C[C@H]1NC(=O)[C@H](CCCN)NC(=O)[C@H](C(C)C)NC(=O)[C@H](Cc2ccc(-c3ccccc3)cc2)NC(=O)[C@H](C(C)C)NC(=O)[C@H](Cc2c[nH]c3ccccc23)NC(=O)[C@H](CC(=O)O)NC(=O)[C@H](Cc2ccc(C(=O)O)cc2)NC(=O)[C@H](Cc2ccc(OCC(=O)O)cc2)NC(=O)CSC[C@@H](C(=O)NCCOCCOCC(=O)N[C@@H](CC(=O)NCCCCCCCCCCCC(=O)O)C(=O)O)NC(=O)[C@H](C(C)O)NC(=O)[C@H](C(C)C)NC(=O)[C@H](CC2CCCCC2)NC(=O)[C@H](CCN)NC1=O (stereo partly drawn) [Compound 3042] ({CH2CO}-Y(Carboxymethyl)[Phe(4-COOH)]DWV[Bip]V[Orn][dL][Dab][Cha]V[Thr(3ξ)]C[AEEA][βAsp][12Ado]-OH; thioether N-14)	0.0115
CC(C)C[C@H]1NC(=O)[C@H](CCCN)NC(=O)[C@H](C(C)C)NC(=O)[C@H](Cc2ccc(-c3ccccc3)cc2)NC(=O)[C@H](C(C)C)NC(=O)[C@H](Cc2c[nH]c3ccccc23)NC(=O)[C@H](CC(=O)O)NC(=O)[C@H](Cc2ccc(OCC(=O)O)cc2)NC(=O)[C@H](CCCCNC(=N)N)NC(=O)CSC[C@@H](C(=O)NCC(=O)NCCOCCOCC(=O)NCCCCCCCCCCCCC(=O)O)NC(=O)[C@H](CO)NC(=O)[C@H](C(C)C)NC(=O)[C@H](CC2CCCCC2)NC(=O)[C@H](CCN)NC1=O [Compound 3043] ({CH2CO}-[hArg]Y(Carboxymethyl)DWV[Bip]V[Orn][dL][Dab][Cha]VSCG[AEEA]-{NH(CH2)12COOH}; thioether N-14)	0.0154
CC(C)C[C@H]1NC(=O)[C@H](CCCN)NC(=O)[C@H](CCC(=O)O)NC(=O)[C@H](Cc2ccc(-c3ccccc3)cc2)NC(=O)[C@H](C(C)C)NC(=O)[C@H](Cc2c[nH]c3ccccc23)NC(=O)[C@H](CC(=O)O)NC(=O)[C@H](Cc2ccc(C(=O)O)cc2)NC(=O)[C@H](Cc2ccc(OCC(=O)O)cc2)NC(=O)CSC[C@@H](C(=O)N[C@@H](CC(N)=O)C(=O)NCCOCCOCCOCCOCCOCCOCCC(=O)N[C@@H](CCCN)C(=O)NCCCCCCCCCCCC(=O)O)NC(=O)[C@H](CO)NC(=O)[C@H](C(C)C)NC(=O)[C@H](CC2CCCCC2)NC(=O)[C@H](CCN)NC1=O [Compound 3045] ({CH2CO}-Y(Carboxymethyl)[Phe(4-COOH)]DWV[Bip]E[Orn][dL][Dab][Cha]VSCN[PEG6][Orn][12Ado]-OH; thioether N-14)	0.0064
